Experimental data taken from patent US12227500B2, “Substituted pyrrolo[2,3-b]pyridines for suppressing toxic endoplasmic reticulum stress” (THE TRUSTEES OF COLUMBIA UNIVERSITY IN THE CITY OF NEW YORK, priority 2018, dated 2025).
Entries after “also recorded” stand apart in the source; their conditions may differ.

How the values were obtained:
[1] = system: panel of 60 human kinases; assay: Radiolabeled ATP kinase assay, panel of 60 kinases (Table S5); format: biochemical; settings: 0.5 μM
How it was run: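 Cell-free radiolabeled-ATP kinase assays across a panel of 60 kinases; each compound tested at 0.1 μM and 0.5 μM for inhibition.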

[2] = target: T1, panel of 371 human kinases (Homo sapiens, UniProt O43293); assay: Radiolabeled ATP kinase assay, panel of 371 kinases (Table S6); format: biochemical; settings: ZIPK/DAPK3; 0.1 μM; 10 μM ATP; read-out: % Enzyme Activity (relative to DMSO controls)
T1 construct: purchased Reaction Biology Corp
Excerpt: (§1) ; FIG. 38C). […]. Further targeted analyses, such as genetic knock-down or knock-out, may be warranted to parse the role of these additional kinases in our model of neurodegeneration.

[3] = target: T2, panel of 371 human kinases (Homo sapiens, UniProt P14616); assay: as above; format: biochemical; settings: IRR/INSRR; 0.1 μM; 10 μM ATP; read-out: % Enzyme Activity (relative to DMSO controls)
T2 construct: purchased Reaction Biology Corp
Excerpt: as §1

[4] = target: T3, panel of 371 human kinases (Homo sapiens, UniProt P29376); assay: as above; format: biochemical; settings: TYK1/LTK; 0.1 μM; 10 μM ATP; read-out: % Enzyme Activity (relative to DMSO controls)
T3 construct: purchased Reaction Biology Corp
Excerpt: as §1

[5] = target: T4, panel of 371 human kinases (Homo sapiens, UniProt P30530); assay: as above; format: biochemical; settings: AXL; 0.1 μM; 10 μM ATP; read-out: % Enzyme Activity (relative to DMSO controls)
T4 construct: purchased Reaction Biology Corp
Excerpt: as §1

[6] = target: T5, panel of 371 human kinases (Homo sapiens, UniProt Q02750); assay: as above; format: biochemical; settings: MEK1; 0.1 μM; 10 μM ATP; read-out: % Enzyme Activity (relative to DMSO controls)
T5 construct: purchased Reaction Biology Corp
Excerpt: as §1

[7] = target: T6, panel of 371 human kinases (Homo sapiens, UniProt Q8TF76); assay: as above; format: biochemical; settings: Haspin; 0.1 μM; 10 μM ATP; read-out: % Enzyme Activity (relative to DMSO controls)
T6 construct: purchased Reaction Biology Corp
Excerpt: as §1

[8] = Plasma and brain concentration after IV injection (FIG. 13B); format: in vivo, mouse; settings: 10 mg/kg
Method: Drug concentrations were analyzed by LC-MS.

N9 microglial cells = assay: TNFα release by LPS-stimulated microglia (ELISA); format: cell-based, mouse; settings: for TNFα secretion in LPS-stimulated microglia: LPS 0.1-5 μM, 24 h
Method: To model microglial activation in vitro, we stimulated mouse N9 microglial cells with increasing concentrations of E. coli-derived lipopolysaccharides (LPS) (0.1-5 μM) to measure release of the pro-inflammatory cytokine TNFα into cell culture media.
Cultures were maintained in DMEM containing FBS (10%, Life Technologies) and Glutamax (1%, Life Technologies). […] N9 cells remaining in the culture dishes were treated with AlamarBlue (Thermo Fisher) to assess viability. 5 μL AlamarBlue was added to each well (containing 50 μL culture media) and incubated for 4 h at 37°.

[9] = system: mouse ES-derived motor neurons; assay: Western blot of JNK pathway activation in CPA-treated motor neurons; format: cell-based; settings: 4 h
Method: Mouse ES-derived motor neurons were treated with CPA, CPA+ compound 1, or vehicle control (DMSO) for four hours. Cells were then lysed to extract proteins.
Samples were harvested after 4 h of treatment. N=samples from 3 separate motor neuron differentiations treated and lysed separately. Cells from each differentiation were split into three samples, one for each treatment condition. All samples were run concurrently on the same blot. All band intensities were normalized to GAPDH to control for loading, then DMSO and CPA+Compound 1 values were normalized to CPA values for each n. One-way ANOVAs were used to evaluate the overall effects of treatment on JNK phosphorylation (P=0.0009; F=28.33; R2=0.9042) and c-Jun phosphorylation (P<0.0001; F=101.9; R2=0.9714).
Whole mouse embryoid bodies at day 6 of differentiation were treated with CPA (10 μM) and test compounds for 4 h, then lysed and sonicated in ice-cold buffer containing HEPES (50 mM), NaCl (100 mM), Triton-X (1%), SDS (0.1%), DTT (1 mM), EDTA (1 mM), plus protease and phosphatase inhibitor cocktail tablets (Roche). Total protein content was analyzed using a BCA kit according to the manufacturer's instructions (Pierce). […] Samples were run for 4 h at 100V at 4°, then transferred to nitrocellulose membranes using an iBlot dry transfer system (Thermo Fisher). Membranes were blocked with tris-buffered saline (TBS) containing 5% BSA (Cell Signaling Technologies), then incubated with primary antibodies in a buffer containing 5% BSA and 0.1% Tween in TBS overnight at 4°. Primary antibodies against phospho-c-Jun (serine 63; Cell Signaling Technologies #9261) were added at 1:500; primary antibodies against phospho-JNK (thr183/tyr185; Cell Signaling Technologies #4688) were added at 1:1000; primary antibodies against GAPDH (Santa Cruz Biotechnologies) were added at 1:1000 as a loading control. Following washes in TBS containing 0.1% Tween, membranes were incubated in goat anti-rabbit HRP-conjugated secondary antibody solutions (1:10,000; Santa Cruz Biotechnologies) for 1 hr. Membranes were then washed again in TBS containing 0.1% Tween, then incubated in Femto ECL (Pierce) for 5 min. Chemiluminescence was visualized using a LiCor Odyssey. Phospho-c-Jun and phopsho-JNK band intensities were normalized to GAPDH.

[10] = system: human stem cell-derived motor neurons derived from a healthy patient; assay: CPA survival assay, wild-type human stem cell-derived motor neurons; settings: CPA 33 μM; at 1.2 μM (PF-6260933), 2.4 μM (GNE-495), 0.6 μM (URMC-099)
phospho-cjun = assay: Phospho-cjun in olfactory bulbs after treatment in vivo (western blot); design: species or system mouse; settings: 10 mg/kg oral gavage
Method: Compounds at 10 mg/kg were delivered intraperitoneally (IP), orally, or sub-cutaneously (SC). Animals were sacrificed 1 h after treatment. Their olfactory bulbs were dissected and lysed for western blot analysis. Phospho-cjun expression was normalized to the housekeeping protein GAPDH.
We therefore selected phospho-cjun as a marker of target engagement for further in vivo studies. C-jun is highly expressed throughout the murine central nervous system, especially in the olfactory bulbs. […] Animals were then sacrificed after 1 h, and their olfactory bulbs were sub-dissected and lysed for further western blot analysis. Samples were probed with an antibody specific to phosphorylated c-jun (at serine 63; cell signaling) and normalized to the housekeeping gene GAPDH.

[11] = Safety of long-term administration in drinking water; format: in vivo; settings: 10 mg/kg, 60 days from P30
Excerpt: […]. Treatment began at P30 and continued for 60 days.

T6 sequence (Q8TF76 whole entry): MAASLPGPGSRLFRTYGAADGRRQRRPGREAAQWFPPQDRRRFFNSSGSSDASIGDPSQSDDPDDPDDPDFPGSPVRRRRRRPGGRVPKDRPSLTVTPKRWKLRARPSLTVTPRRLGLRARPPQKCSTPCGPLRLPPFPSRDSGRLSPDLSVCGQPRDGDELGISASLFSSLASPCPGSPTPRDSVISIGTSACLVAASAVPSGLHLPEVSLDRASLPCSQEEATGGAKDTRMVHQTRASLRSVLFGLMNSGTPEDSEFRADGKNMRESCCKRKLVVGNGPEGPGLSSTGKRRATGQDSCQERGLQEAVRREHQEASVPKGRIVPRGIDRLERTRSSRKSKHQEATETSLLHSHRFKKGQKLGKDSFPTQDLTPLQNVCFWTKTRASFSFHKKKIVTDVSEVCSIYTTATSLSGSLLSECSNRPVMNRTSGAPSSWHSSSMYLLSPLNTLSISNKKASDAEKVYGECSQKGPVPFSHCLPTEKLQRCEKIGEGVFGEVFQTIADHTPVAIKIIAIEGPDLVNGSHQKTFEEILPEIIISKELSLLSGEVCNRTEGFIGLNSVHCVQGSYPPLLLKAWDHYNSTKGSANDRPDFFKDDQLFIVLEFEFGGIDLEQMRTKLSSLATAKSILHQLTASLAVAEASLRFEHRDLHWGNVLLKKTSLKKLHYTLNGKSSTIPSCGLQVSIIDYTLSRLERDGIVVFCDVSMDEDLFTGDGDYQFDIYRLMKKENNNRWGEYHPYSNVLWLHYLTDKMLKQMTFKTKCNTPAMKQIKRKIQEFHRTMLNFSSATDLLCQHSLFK
T2 sequence (P14616 27-1297): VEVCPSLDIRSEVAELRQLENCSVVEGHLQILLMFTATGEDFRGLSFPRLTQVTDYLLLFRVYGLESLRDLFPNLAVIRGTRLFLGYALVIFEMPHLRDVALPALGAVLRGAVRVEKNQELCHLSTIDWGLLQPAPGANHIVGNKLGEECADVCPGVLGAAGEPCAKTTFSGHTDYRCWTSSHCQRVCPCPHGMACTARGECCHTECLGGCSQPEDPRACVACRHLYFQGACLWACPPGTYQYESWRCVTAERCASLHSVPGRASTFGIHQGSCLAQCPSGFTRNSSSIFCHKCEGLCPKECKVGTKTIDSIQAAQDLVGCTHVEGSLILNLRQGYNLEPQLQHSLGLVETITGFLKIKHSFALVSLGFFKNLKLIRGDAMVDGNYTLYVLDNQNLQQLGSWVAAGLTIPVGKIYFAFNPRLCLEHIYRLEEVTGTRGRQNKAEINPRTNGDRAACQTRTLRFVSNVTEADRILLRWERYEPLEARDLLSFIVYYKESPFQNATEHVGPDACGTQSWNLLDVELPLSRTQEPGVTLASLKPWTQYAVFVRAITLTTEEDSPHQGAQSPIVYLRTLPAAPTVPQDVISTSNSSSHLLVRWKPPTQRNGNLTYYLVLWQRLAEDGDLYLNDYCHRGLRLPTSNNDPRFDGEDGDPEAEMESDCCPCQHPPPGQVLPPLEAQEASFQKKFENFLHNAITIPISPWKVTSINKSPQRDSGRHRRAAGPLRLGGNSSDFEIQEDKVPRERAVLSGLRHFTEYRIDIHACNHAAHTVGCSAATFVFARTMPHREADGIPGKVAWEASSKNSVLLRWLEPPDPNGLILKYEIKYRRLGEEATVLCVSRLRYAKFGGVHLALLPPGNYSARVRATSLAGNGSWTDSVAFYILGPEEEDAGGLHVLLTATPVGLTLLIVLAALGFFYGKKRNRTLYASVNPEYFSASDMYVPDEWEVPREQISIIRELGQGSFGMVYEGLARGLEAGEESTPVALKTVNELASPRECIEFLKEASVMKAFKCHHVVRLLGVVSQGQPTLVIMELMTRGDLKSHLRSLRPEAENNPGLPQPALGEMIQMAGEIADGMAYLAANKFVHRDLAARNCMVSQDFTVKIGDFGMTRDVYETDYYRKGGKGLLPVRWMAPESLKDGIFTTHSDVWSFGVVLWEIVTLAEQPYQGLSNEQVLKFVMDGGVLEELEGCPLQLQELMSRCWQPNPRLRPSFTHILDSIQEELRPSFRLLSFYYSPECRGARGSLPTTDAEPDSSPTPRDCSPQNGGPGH
T1 sequence (O43293 whole entry): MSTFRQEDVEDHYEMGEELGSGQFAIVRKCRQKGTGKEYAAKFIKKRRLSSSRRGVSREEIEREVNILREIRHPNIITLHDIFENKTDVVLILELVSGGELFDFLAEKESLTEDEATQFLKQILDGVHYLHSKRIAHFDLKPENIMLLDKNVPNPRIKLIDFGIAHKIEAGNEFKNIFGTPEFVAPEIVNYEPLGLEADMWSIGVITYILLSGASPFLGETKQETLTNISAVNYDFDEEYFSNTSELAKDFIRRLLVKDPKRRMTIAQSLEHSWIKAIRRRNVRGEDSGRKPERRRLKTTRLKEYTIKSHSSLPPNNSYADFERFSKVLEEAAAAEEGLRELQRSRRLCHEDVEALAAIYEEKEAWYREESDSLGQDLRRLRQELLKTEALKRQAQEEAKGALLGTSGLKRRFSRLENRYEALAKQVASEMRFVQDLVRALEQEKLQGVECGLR
T4 sequence (P30530 26-894): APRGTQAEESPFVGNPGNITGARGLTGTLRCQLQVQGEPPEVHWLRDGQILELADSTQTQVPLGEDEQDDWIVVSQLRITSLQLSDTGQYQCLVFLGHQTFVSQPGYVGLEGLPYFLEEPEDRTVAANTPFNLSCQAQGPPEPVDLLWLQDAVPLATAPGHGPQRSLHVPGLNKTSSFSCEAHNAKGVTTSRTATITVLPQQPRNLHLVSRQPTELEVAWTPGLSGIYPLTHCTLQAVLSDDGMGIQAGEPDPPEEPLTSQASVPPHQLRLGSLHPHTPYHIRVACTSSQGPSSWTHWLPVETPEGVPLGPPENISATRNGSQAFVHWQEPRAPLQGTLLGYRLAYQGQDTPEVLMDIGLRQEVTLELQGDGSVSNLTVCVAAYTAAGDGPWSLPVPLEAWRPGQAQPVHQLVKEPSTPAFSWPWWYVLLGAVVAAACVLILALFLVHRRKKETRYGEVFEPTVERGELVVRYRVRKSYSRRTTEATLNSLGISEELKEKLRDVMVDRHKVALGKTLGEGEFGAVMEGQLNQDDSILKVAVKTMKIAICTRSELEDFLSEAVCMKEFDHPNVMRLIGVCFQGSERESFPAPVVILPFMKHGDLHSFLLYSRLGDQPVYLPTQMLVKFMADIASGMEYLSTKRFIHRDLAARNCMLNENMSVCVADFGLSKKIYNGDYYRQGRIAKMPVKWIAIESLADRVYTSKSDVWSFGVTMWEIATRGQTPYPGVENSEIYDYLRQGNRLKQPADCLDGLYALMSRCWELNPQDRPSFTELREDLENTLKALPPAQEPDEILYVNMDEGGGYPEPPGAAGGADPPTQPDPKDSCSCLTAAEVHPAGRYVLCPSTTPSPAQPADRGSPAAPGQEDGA
T3 sequence (P29376 17-864): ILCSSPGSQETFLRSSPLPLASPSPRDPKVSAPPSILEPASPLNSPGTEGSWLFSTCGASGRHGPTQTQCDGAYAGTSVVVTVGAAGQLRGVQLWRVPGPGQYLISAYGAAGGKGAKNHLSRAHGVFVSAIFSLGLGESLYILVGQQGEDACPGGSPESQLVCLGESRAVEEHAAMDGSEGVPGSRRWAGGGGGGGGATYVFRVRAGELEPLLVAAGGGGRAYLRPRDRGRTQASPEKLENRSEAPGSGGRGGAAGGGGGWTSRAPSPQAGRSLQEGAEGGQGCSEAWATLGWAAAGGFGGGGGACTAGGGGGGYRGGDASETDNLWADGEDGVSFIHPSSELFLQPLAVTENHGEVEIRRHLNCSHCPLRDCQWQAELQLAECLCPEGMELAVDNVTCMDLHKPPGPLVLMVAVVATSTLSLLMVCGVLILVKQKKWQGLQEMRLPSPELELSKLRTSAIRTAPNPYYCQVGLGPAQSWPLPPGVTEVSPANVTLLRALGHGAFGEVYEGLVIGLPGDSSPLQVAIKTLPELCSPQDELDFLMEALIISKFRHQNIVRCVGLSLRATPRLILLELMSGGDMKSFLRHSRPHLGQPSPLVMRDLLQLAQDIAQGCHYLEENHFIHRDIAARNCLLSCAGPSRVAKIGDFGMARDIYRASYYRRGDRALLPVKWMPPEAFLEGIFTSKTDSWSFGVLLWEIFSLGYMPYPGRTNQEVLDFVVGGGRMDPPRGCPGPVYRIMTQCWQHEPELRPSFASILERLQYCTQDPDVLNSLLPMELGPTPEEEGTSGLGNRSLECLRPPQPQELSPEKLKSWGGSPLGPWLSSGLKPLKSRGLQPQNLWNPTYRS
T5 sequence (Q02750 whole entry): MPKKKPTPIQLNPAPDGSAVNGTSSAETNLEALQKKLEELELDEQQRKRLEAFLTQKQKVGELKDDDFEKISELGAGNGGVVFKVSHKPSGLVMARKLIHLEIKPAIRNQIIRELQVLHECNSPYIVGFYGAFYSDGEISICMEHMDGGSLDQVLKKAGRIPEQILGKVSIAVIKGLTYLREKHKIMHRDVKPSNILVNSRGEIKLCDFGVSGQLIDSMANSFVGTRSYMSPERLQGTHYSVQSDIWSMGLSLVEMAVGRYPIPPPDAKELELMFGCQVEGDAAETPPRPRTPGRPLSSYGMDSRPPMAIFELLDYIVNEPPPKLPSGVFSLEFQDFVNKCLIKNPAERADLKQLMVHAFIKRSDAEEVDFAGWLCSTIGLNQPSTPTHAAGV

SMILES | number of the 60 kinases strongly inhibited (<20% residual activity) [1] | remaining activity at 0.1 µM [2] | remaining activity at 0.1 µM [3] | remaining activity at 0.1 µM [4] | remaining activity at 0.1 µM [5] | remaining activity at 0.1 µM [6] | remaining activity at 0.1 µM [7] | level in plasma and brain 1 h after injection (LC-MS) [8] | TNFα secretion in LPS-stimulated microglia (N9 microglial cells) | JNK phosphorylation in CPA-treated motor neurons [9] | MKK4 phosphorylation in CPA-treated MNs [9] | c-Jun phosphorylation in CPA-treated motor neurons [9] | caspase 3 cleavage in CPA-treated MNs [9] | motor neuron survival restored, % of vehicle controls (maximum) [10] | potency in TNFα release assay relative to compound 1 (times less potent) (N9 microglial cells) | oral bioavailability (from reduction of cjun phosphorylation after oral gavage) (phospho-cjun) | body mass vs vehicle-treated controls [11] | survival, hindlimb strength, gross pathology [11]
CN1CCN(Cc2ccc(-c3cnc4[nH]cc(-c5ccc6[nH]ccc6c5)c4c3)cc2)CC1 [Compound 1, 3-(1H-Indol-5-yl)-5-(4-((4-methylpiperazin-1-yl)methyl)phenyl)-1H-pyrrolo[2,3-b]pyridine, reference compound] | 27 | 108% | 50.1% | 105% | 35.8% | 111% | 128% | below the limits of detection | significantly and dose-dependently decreased TNFα secretion | strongly attenuated; also recorded: significantly decreased JNK phosphorylation | strongly attenuated | strongly suppressed; also recorded: below the threshold of detection | strongly suppressed | 90% | – | – | – | –
OCCN1CCN(Cc2ccc(-c3cnc4[nH]cc(-c5cccc(Cl)c5)c4c3)cc2)CC1 [Compound 12k, 2-(4-(4-(3-(3-Chlorophenyl)-1H-pyrrolo[2,3-b]pyridin-5-yl)benzyl)piperazin-1-yl)ethan-1-ol] | – | 99.8% | 89.9% | 117% | 39.8% | 92.7% | 75% | still detectable | significantly decreased TNFα secretion | – | – | – | – | – | ~5 × | orally bioavailable | mild increase in body mass | No differences in survival, hindlimb strength, or gross pathology
CN1CCN(Cc2ccc(-c3cnc4[nH]cc(-c5cccc(Cl)c5)c4c3)cc2)CC1 [Compound 7ad, 3-(3-Chlorophenyl)-5-(4-((4-methylpiperazin-1-yl)methyl)phenyl)-1H-pyrrolo[2,3-b]pyridine] | 12 | – | – | – | – | – | – | – | – | – | – | – | – | – | – | – | – | –
